Series [1] in a line: Pharmacokinetics of tolbutamide in control, APE-pretreated and andrographolide-pretreated rats. Type of series: in vivo, Sprague-Dawley rats. The note with it: male, Sprague-Dawley, rat, plasma, control rats (methyl cellulose vehicle for 5 days), tolbutamide 20 mg/kg oral. The protocol: Seven-week-old male Sprague-Dawley rats cannulated in the jugular vein were purchased from the Bio LASCO Experimental Animal Center (Taipei, Taiwan). The animals were fed a standard rat diet and were randomly assigned into control, APE-treated, and andrographolide-treated groups (n = 5). Rats were housed in plastic cages in a room kept at 23 ± 1°C and 60 ± 5% relative humidity with a 12-hour light and dark cycle. Food and drinking water were available ad libitum. Control rats were orally administered methyl cellulose. […] After the 5th daily dose, rats were deprived of food overnight. On day 6, a 20 mg/kg oral dose of tolbutamide, as a solution in Cremophor EL (polyoxyl 35 hydrogenated castor oil, Sigma)/ethanol/water (30/10/60, v/v/v), was administered to each rat. After the administration of tolbutamide, serial blood samples were collected up to 12 h after dosing from each rat. The animals were then killed by exsanguination, and the livers were collected.
Tolbutamide was prepared in a solution of Cremophor EL/ethanol/water (30/10/60, v/v/v). After administration, blood samples (~200 μL) were collected from the tail vein of each rat at 0.25, 0.5, 1, 2, 4, 8, and 12 h after dosing. Plasma was separated from blood by centrifugation (4000 ×g for 20 min at 4°C). An aliquot of 50 μL plasma was mixed with 100 μL acetonitrile and then centrifuged at 10,000 ×g for 15 min at 4°C. The supernatant was used to determine the concentration of tolbutamide by LC/MS. Calibration standards of tolbutamide were prepared by serial dilution of a tolbutamide stock solution with blank plasma, yielding final concentrations of tolbutamide ranging from 1 to 300 μg/mL of plasma.
The HPLC system consisted of an Agilent 1100 series LC System (Palo Alto, CA) and an Agilent Zorbax Eclipse XDB-C8 column (3 μm, 3.0 mm × 150 mm), interfaced to an Agilent MSD mass spectrometer equipped with an electrospray ionization source. Column temperature was set at 25°C. The initial mobile phase composition was 30% acetonitrile containing 10 mM ammonium acetate (solvent A) and 70% of 0.1% formic acid (solvent B). The following gradient system was used: 30% A to 50% A (0-1 min), 50% A to 98% A (1–3 min), 98% A (3–9 min), 98% A to 30% A (9-10 min), and 30% A (10–15 min). The flow rate was 0.5 mL/min. Sample injection volume was 10 μL. The MS data acquisition was via selected ion monitoring. The positive ion of the testing compound was selected, and the peak size was measured. The area under the plasma tolbutamide concentration versus time curve (AUC) was calculated by using the trapezoidal method.

Series [2] can be described thus: Plasma tolbutamide concentration in high-fat diet-induced obese mice. The series is classed as in vivo, C57BL/6 mice. The conditions noted are these: C57BL/6, mouse, 2 h after dosing 20 mg/kg oral tolbutamide, control obese mice (methyl cellulose vehicle). Here is the method: Eleven-month-old high-fat diet-fed (45% of energy from fat; Research Diet Inc., New Brunswick, NJ) C57BL/6 mice were obtained from the National Health Research Institute (Miaoli, Taiwan). Control mice were orally administered 0.5% methyl cellulose (10 mL/kg). […] After the 5th daily dose, the mice were deprived of food overnight. On day 6, a 20 mg/kg oral dose of tolbutamide, as a solution in Cremophor EL/ethanol/water (30/10/60, v/v/v), was administered to each mouse. Thirty minutes later, a 1 g/kg dose of glucose, as a solution in water, was administered orally according to the method described by Zong et al.. Serial blood samples were collected up to 8 h after the glucose dose from each mouse. The animals were then killed by exsanguination and the livers collected.
Tolbutamide was prepared in a solution of Cremophor EL/ethanol/water (30/10/60, v/v/v). […]
The HPLC system consisted of an Agilent 1100 series LC System (Palo Alto, CA) and an Agilent Zorbax Eclipse XDB-C8 column (3 μm, 3.0 mm × 150 mm), interfaced to an Agilent MSD mass spectrometer equipped with an electrospray ionization source. […] The positive ion of the testing compound was selected, and the peak size was measured. The area under the plasma tolbutamide concentration versus time curve (AUC) was calculated by using the trapezoidal method.

These results are taken from article PMC3753754, “Andrographis paniculata Extract and Andrographolide Modulate the Hepatic Drug Metabolism System and Plasma Tolbutamide Concentrations in Rats” (Evidence-based Complementary and Alternative Medicine : eCAM, 2013).

As usually defined, the MRT is the average time that molecules of a dose stay in the body.

For the molecule `CCCCNC(=O)NS(=O)(=O)c1ccc(C)cc1` [tolbutamide], in series [1], the MRT was 7.9 ± 1.6 h. The AUC(0-t) in series [1] (read-out: AUC0–12 h of plasma tolbutamide) amounted to 1390 ± 262 µg·h/mL. Moreover, the Cmax in series [1] (read-out: C max of tolbutamide) amounted to 151 ± 21 µg/mL. The Tmax in series [1] (read-out: T max of tolbutamide) came out at 1.6 ± 0.5 h. Further, the concentration at 2 h in series [2] was found to be 124 ± 32 µg/mL.
